Experimental data reported in patent US8063104B2, “Guanidine derivatives as inhibitors of DDAH” (UCL Business PLC, priority 2004, dated 2011).

Molecular target: T1, DDAH (Rattus norvegicus, UniProt O08557)
T1 construct: Rat kidney was homogenized in PBS; from tissue; host or cells: rat kidney homogenate, high-speed supernatant
Test: DDAH activity assay (rat kidney lysate, [14C]L-NMMA to [14C]citrulline)
Assay type: biochemical
Conditions: for Inhibition at 1 mM, % / inhibition at 1000 µM: 1 mM compound, [14C]L-NMMA 1 μmol/L, 1 h 37° C.; for Inhibition at 100 μM (%): 100 μM compound
Procedure: Rat kidney was homogenized in PBS containing PMSF 1 mM, leupeptin 5 μg/ml, pepstatin 5 μg/ml, chymostatin 5 μg/ml, and the lysate was centrifuged (4000 rpm. 20 min then supernatant further centrifuged for 40000 rpm, 30 min, 4° C.). The supernatants were analyzed for DDAH activity; [^14[…]) was added to the cell lysates (final volume 100 μl) and incubated for 1 h at 37° C. Dowex resin (0.5 ml) at neutral pH was immediately added to samples to terminate the reaction and bind unmetabolized L-NMMA. [^14C]Citrulline formation was determined by scintillation counting (Hewlett Packard).

T1 sequence (O08557 2-285 limits assumed): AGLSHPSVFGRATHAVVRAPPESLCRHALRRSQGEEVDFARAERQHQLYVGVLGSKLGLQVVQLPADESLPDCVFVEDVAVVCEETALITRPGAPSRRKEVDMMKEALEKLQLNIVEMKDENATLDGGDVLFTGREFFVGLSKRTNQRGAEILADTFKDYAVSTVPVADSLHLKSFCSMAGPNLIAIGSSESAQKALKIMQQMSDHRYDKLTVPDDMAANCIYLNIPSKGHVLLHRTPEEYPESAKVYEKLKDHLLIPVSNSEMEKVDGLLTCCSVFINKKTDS

Row | SMILES | inhibition at 1000 µM | further results
1 | NC(=NCc1cccs1)NCC[C@H](N)C(=O)O [(S)-2-Amino-4-(N′-(2-thiophenemethyl)guanidino)butanoic acid] | – | Inhibition at 1 mM, %: 34%
2 | CC(C)N=C(N)NCC[C@H](N)C(=O)O [Example 1, (S)-2-Amino-4-(N′-isopropylguanidino)butanoic acid] | 38% | –
3 | CCCN=C(N)NCC[C@H](N)C(=O)O [Example 2, (S)-2-Amino-4-(N′-propylguanidino)butanoic acid] | 41% | –
4 | NC(=NCc1ccccc1)NCC[C@H](N)C(=O)O [Example 3, (S)-2-Amino-4-(N′-benzylguanidino)butanoic acid] | 22% | –
5 | NC(=NC1CCCCC1)NCC[C@H](N)C(=O)O [Example 4, (S)-2-Amino-4-(N′-cyclohexylguanidino)butanoic acid] | 51% | –
6 | NC(=Nc1ccccc1)NCC[C@H](N)C(=O)O [Example 5, (S)-2-Amino-4-(N′-phenylguanidino)butanoic acid] | 65% | –
7 | COCCN=C(N)NCC[C@H](N)C(=O)O [Example 6, (S)-2-Amino-4-(N′-(2-methoxyethyl)guanidino)butanoic acid] | 90% | –
8 | CCCCCCCCN=C(N)NCC[C@H](N)C(=O)O [Example 7, (S)-2-Amino-4-(N′-octylguanidino)butanoic acid] | 27% | –
9 | NC(=NC1CC1)NCC[C@H](N)C(=O)O [Example 8, (S)-2-Amino-4-(N′-cyclopropylguanidino)butanoic acid] | 65% | –
10 | CN(C)CCN=C(N)NCC[C@H](N)C(=O)O [Example 9, (S)-2-Amino-4-(N′-(2′-dimethylaminoethyl)guanidino)butanoic acid] | – | Inhibition at 1 mM, %: 25%
11 | CC(C)(C)CN=C(N)NCC[C@H](N)C(=O)O [Example 10] | – | Inhibition at 1 mM, %: 19%
12 | NC(=NCCOc1ccccc1)NCC[C@H](N)C(=O)O [Example 11, (S)-2-Amino-4-(N′-(2-phenoxyethyl)guanidino)butanoic acid] | 38% | –
13 | CSCCN=C(N)NCC[C@H](N)C(=O)O [Example 12, (S)-2-Amino-4-(N′-(2-methylthioethyl)guanidino)butanoic acid] | 19% | –
14 | CC(C)OCCN=C(N)NCC[C@H](N)C(=O)O [Example 13, (S)-2-Amino-4-(N′-(2-isopropoxyethyl)guanidino)butanoic acid] | 97% | –
15 | C=CCN=C(N)NCC[C@H](N)C(=O)O [Example 14, (S)-2-Amino-4-(N′-allylguanidino)butanoic acid] | 70% | –
16 | N=C(NCC[C@H](N)C(=O)O)N1CCCCC1 [Example 15, (S)-2-Amino-4-[(piperidine-1-carboximidoyl)-amino]butanoic acid] | 74% | –
17 | N=C(NCC[C@H](N)C(=O)O)N1CCCC1 [Example 16, (S)-2-Amino-4-[(pyrrolidine-1-carboximidoyl)-amino]butanoic acid] | 79% | –
18 | N=C(NCC[C@H](N)C(=O)O)N1CCOCC1 [Example 17, (S)-2-Amino-4-[(morpholine-4-carboximidoyl)-amino]butanoic acid] | 60% | –
19 | CCOC(=O)[C@@H](N)CCNC(N)=NCCOC [Example 23, (S)-2-Amino-4-(N′-(2-methoxyethyl)guanidino)butanoic acid ethyl ester] | 44% | –
20 | CCCCOC(=O)[C@@H](N)CCNC(N)=NCCOC [Example 25, (S)-2-Amino-4-(N′-(2-methoxyethyl)guanidino)butanoic acid butyl ester] | 40% | –
21 | N=C(NCCC[C@H](N)C(=O)O)NCC1CCCO1 (stereo partly drawn) [Example 31, (S)—N^G-((Tetrahydrofuran-2-yl)methyl)-arginine] | – | Inhibition at 100 μM (%): 30%
22 | N=C(NCC[C@H](N)C(=O)O)NCC1CCCO1 (stereo partly drawn) [Example 32, (2S)-2-Amino-4-N^G-((tetrahydrofuran-2-yl)methyl)guanidinobutanoic acid] | – | Inhibition at 100 μM (%): 10%
